Experiments:
[1] = in vivo; cited from earlier work
HIV = settings: week 48; cited from earlier work
[2] = Intensive steady-state plasma pharmacokinetics of dolutegravir, Stage I; type: in vivo, human (HIV-1 infected treatment-experienced adolescents); settings: Stage I N=10, ~1 mg/kg once daily; for AUC(0-t) / concentration at 24 h / Cmax / half-life: human, plasma, oral, 1 mg/kg
HIV-1 = assay: Virologic efficacy: plasma HIV-1 RNA through Week 48; type: in vivo, human (HIV-1 infected treatment-experienced adolescents); settings: Week 48, N=23, dolutegravir plus OBR
CD4 cell count = assay: Change from baseline in CD4 cell count and percentage at Week 48; type: in vivo, human (HIV-1 infected treatment-experienced adolescents); settings: Week 48, dolutegravir plus OBR
[3] = system: virus with R263K mutation at virologic failure; settings: adult study where R263K mutation was seen; cited from earlier work
[4] = Safety and adverse events through Week 48
[5] = Grade 1 or 2 transient clinical events, N=23, not considered related to dolutegravir

## CCC[C@@]1(CCc2ccccc2)CC(O)=C([C@H](CC)c2cccc(NS(=O)(=O)c3ccc(C(F)(F)F)cn3)c2)C(=O)O1 [tipranavir]
[1]
  children reporting serious adverse events: 25%
  treatment discontinuation due to serious adverse events: 8%

## Cc1nnc(C(=O)NC(C)(C)c2nc(C(=O)NCc3ccc(F)cc3)c(O)c(=O)n2C)o1 [raltegravir]
HIV
  virologic efficacy of the adolescent cohort: 57%

## C[C@@H]1CCO[C@H]2Cn3cc(C(=O)NCc4ccc(F)cc4F)c(=O)c(O)c3C(=O)N12 [Dolutegravir]
[2]
  C24, GM (geometric mean): 0.90 µg/mL
  CL/F, GM: 78.03 L/h
  CL/F, Mean (SD): 1.25 (±0.97) L/hr
  CL/F, Median (min, max): 0.87 (0.59, 3.83) L/hr
  Tmax, Median (min, max): 3.00 (1.00, 6.00) hr
[2]; AUC0–24, GM, Table 2
  AUC(0-t): 43100 ng·h/mL
[2]; AUC0–24, Mean (SD)
  AUC(0-t): 51600 ng·h/mL
[2]; AUC0–24, Median (min, max)
  AUC(0-t): 52900 ng·h/mL
[2]; C24, GM (geometric mean)
  concentration at 24 h: 900 ng/mL
[2]; C24, Mean (SD)
  concentration at 24 h: 1090 ng/mL
[2]; C24, Median (min, max)
  concentration at 24 h: 1140 ng/mL
[2]; Mean (SD)
  Cmax: 3820 ng/mL
[2]; Median (min, max)
  Cmax: 4010 ng/mL
[2]; T1/2, GM
  half-life: 11.9 h
[2]; T1/2, Median (min, max)
  half-life: 10.4 h
HIV-1
  Virologic success: proportion with HIV RNA < 400 copies/mL: 74%
  proportion with HIV RNA < 50 copies/mL: 61%
CD4 cell count
  Median (IQR) gain in CD4 cell count: 84 cells/µL
[3]
  dolutegravir FC values at virologic failure: < 2 fold
[4]; [5]
  abdominal pain, subjects: 21%
  arthralgia, subjects: 13%
  back pain, subjects: 13%
  decrease appetite, subjects: 30%
  diarrhea, subjects: 35%
  dizziness, subjects: 17%
  extremity pain, subjects: 26%
  fever, subjects: 30%
  headache, subjects: 26%
  lymphadenopathy, subjects: 26%
  nasal congestion, subjects: 30%
  nausea, subjects: 13%
  pharyngeal pain, subjects: 35%
  sinus congestion, subjects: 17%
[4]; through Week 48
  Grade 4 AEs, SAEs or discontinuations due to AEs: no Grade 4 AEs, SAEs or discontinuations due to AEs
[4]; through Week 48, dolutegravir plus OBR
  tolerability: well tolerated
